Legend:
wild-type HIV protease = wild-type HIV protease (Human immunodeficiency virus type 1 group M subtype B, UniProt P04585); assay: biochemical
[1] = molecular target: HIV protease mutant enzyme Q-60 (Human immunodeficiency virus type 1, UniProt P04585); assay: inhibition of microbial expressed HIV protease (WO 01/05230), mutant enzyme Q-60; format: biochemical
viral construct Q60 = assay: cell spread assay (WO 01/05230), viral construct Q60; format: cell-based, HIV
Text: (§1) Compound A and its hydrohalide salts are inhibitors of HIV protease, including mutant forms thereof that are resistant to known protease inhibitors.

viral construct V-18 = assay: cell spread assay (WO 01/05230), viral construct V-18; format: cell-based, HIV
Text: as §1

[2] = oral absorption and pharmacokinetics in animal models; format: in vivo
[3] = molecular target: HIV protease mutant enzyme K-60 (Human immunodeficiency virus type 1, UniProt P04585); assay: inhibition of microbial expressed HIV protease (WO 01/05230), mutant enzyme K-60; format: biochemical
[4] = solubility in aqueous solutions; format: physicochemical; settings: aqueous solutions including dilute HCl (gastric acid) solutions
[5] = tested on: wild-type viral construct; assay: cell spread assay (WO 01/05230), wild-type viral construct; format: cell-based, HIV
Text: as §1

[6] = molecular target: HIV protease mutant enzyme V-18 (Human immunodeficiency virus type 1, UniProt P04585); assay: inhibition of microbial expressed HIV protease (WO 01/05230), mutant enzyme V-18; format: biochemical
viral construct K-60 = assay: cell spread assay (WO 01/05230), viral construct K-60; format: cell-based, HIV
Text: as §1

SMILES: COc1cncc(-c2cnc(C(C)(C)N3CCN(C[C@@H](O)C[C@@H](Cc4ccccc4)C(=O)N[C@H]4c5ccccc5OC[C@H]4O)[C@H](C(=O)NCC(F)(F)F)C3)o2)c1 [Compound A, (αR,γS,2S)-N-[(3S,4S)-3,4-dihydro-3-hydroxy-2H-1-benzopyran-4-yl]-y-hydroxy-4-[1-[5-(5-methoxy-3-pyridinyl)-2-oxazolyl]-1-methylethyl]-α-(phenylmethyl)-2-[[(2,2,2-trifluoroethyl)amino]carbonyl]-1-piperazinepentanamide]
- IC50 (wild-type HIV protease): < 1 nM
- potency compared with indinavir (wild-type HIV protease; HIV protease inhibition assay): significantly more potent
- IC50 [1]: < 5 nM
- CIC95 (viral construct Q60): below 125 nM
- CIC95 (viral construct V-18): below 125 nM
- oral absorption [2]: poor oral absorption
- IC50 [3]: < 5 nM
- solubility [4]: relatively low solubility
- potency compared with indinavir ([5]; cell spread assay): significantly more potent
- CIC95 ([5]; wild-type viral construct): below 50 nM
- IC50 [6]: < 5 nM
- CIC95 (viral construct K-60): below 125 nM
